Target: T1, PAPD5 (Homo sapiens, UniProt Q8NDF8)
T1 construct: made in house
Experiment: High-throughput luminescence (KinaseGlo) RNA polyadenylation assay, ATP utilization by recombinant PAPD5
Format: biochemical
Details: Table 4 (entries of Table 5), ratio of luminescence with inhibitor to DMSO; for Fold-change determined at compound concentration 33 μM: 33 μM compound; for Fold-change determined at compound concentration 100 μM: 100 μM compound, higher = higher inhibition
Outline: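 Recombinant PAPD5 polyadenylates an oligonucleotide substrate using ATP, and remaining ATP is read by KinaseGlo luciferase luminescence. Compound was incubated for 2 h at room temperature, then with luciferase for 10 min.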

T1 sequence (Q8NDF8 68-698 isoform Q8NDF8-5): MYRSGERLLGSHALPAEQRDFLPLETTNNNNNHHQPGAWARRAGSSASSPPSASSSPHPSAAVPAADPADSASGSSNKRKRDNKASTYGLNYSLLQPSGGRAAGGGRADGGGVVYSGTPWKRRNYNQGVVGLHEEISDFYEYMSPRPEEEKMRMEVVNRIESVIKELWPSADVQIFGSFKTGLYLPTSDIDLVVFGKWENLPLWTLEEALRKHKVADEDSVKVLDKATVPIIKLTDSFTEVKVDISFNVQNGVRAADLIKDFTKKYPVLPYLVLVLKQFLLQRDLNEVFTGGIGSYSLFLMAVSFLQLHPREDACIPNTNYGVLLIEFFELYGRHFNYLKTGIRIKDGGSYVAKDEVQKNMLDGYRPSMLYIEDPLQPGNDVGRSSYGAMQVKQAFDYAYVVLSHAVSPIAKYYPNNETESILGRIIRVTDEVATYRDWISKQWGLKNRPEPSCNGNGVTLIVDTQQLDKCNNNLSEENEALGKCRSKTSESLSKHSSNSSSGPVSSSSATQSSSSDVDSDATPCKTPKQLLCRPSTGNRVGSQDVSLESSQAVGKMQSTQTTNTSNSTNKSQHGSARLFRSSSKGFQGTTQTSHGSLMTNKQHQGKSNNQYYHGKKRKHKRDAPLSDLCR

Fold-change determined at compound concentration 33 μM | Fold-change determined at compound concentration 100 μM | SMILES
1.12 | 1.301 | Cc1cc2[nH]c(=O)c(=O)[nH]c2cc1S(=O)(=O)Nc1ccc(OC(F)(F)F)cc1 [Entry 137, 7-methyl-2,3-dioxo-N-[4-(trifluoromethoxy)phenyl]-1,4-dihydroquinoxaline-6-sulfonamide]
1.161 | 1.317 | COc1cc(Cl)c(NS(=O)(=O)c2cc3[nH]c(=O)c(=O)[nH]c3cc2C)c(OC)c1 [Entry 138, N-(2-chloro-4,6-dimethoxyphenyl)-7-methyl-2,3-dioxo-1,4-dihydroquinoxaline-6-sulfonamide]
1.272 | 1.549 | CCOC(=O)c1cccc(NS(=O)(=O)c2cc3[nH]c(=O)c(=O)[nH]c3cc2C)c1 [Entry 139, ethyl 3-[(7-methyl-2,3-dioxo-1,4-dihydroquinoxalin-6-yl)sulfonylamino]benzoate]
1.329 | 1.91 | COc1cccc(C(=O)Nc2nc3nc(-c4ccccc4)cc(=O)n3[nH]2)c1 [Entry 140, 3-methoxy-N-(7-oxo-5-phenyl-1H-[1,2,4]triazolo[1,5-a]pyrimidin-2-yl)benzamide]
1.308 | 1.882 | COc1ccc(-c2[nH]nc3nc(-c4cc(OC)c(OC)c(OC)c4)cc(C(=O)O)c23)cc1 [Entry 141, 3-(4-methoxyphenyl)-6-(3,4,5-trimethoxyphenyl)-2H-pyrazolo[3,4-b]pyridine-4-carboxylic acid]
1.116 | 1.255 | CCc1cc(=O)n2nc(NCc3ccccc3C)nc2[nH]1 [Entry 143, 5-ethyl-2-[(2-methylbenzyl)amino][1,2,4]triazolo[1,5-a]pyrimidin-7(4H)-one]
1.07 | 1.217 | Cc1ccc(-c2ccc3nnc(C)n3n2)cc1S(=O)(=O)N1CCCC1 [Entry 146, 3-methyl-6-(4-methyl-3-pyrrolidin-1-ylsulfonylphenyl)-[1,2,4]triazolo[4,3-b]pyridazine]
1.118 | 1.243 | CC1=C2C(=NC(=O)CC2c2ccc(O)cc2)N(c2ccc3nncn3n2)N1 (stereo not drawn) [Entry 147, 4-(4-hydroxyphenyl)-3-methyl-1-([1,2,4]triazolo[4,3-b]pyridazin-6-yl)-4,5-dihydro-2H-pyrazolo[3,4-b]pyridin-6-one]
1.05 | 1.215 | Cc1nnc2ccc(-n3ncc4c3NC(=O)CC4c3ccc(O)cc3)nn12 (stereo not drawn) [Entry 148, 4-(4-hydroxyphenyl)-1-(3-methyl[1,2,4]triazolo[4,3-b]pyridazin-6-yl)-1,4,5,7-tetrahydro-6H-pyrazolo[3,4-b]pyridin-6-one]
1.183 | 1.309 | CCOC(=O)c1ccc(NC(=O)CCc2c(C)nc3nc[nH]n3c2=O)cc1 [Entry 149, ethyl 4-[3-(5-methyl-7-oxo-1H-[1,2,4]triazolo[1,5-a]pyrimidin-6-yl)propanoylamino]benzoate]
1.19 | 1.577 | Cc1ccccc1C(=O)Nc1nc2nc(-c3ccccc3)cc(=O)n2[nH]1 [Entry 150, 2-methyl-N-(7-oxo-5-phenyl-1H-[1,2,4]triazolo[1,5-a]pyrimidin-2-yl)benzamide]
1.312 | 1.799 | Cc1cccc(C(=O)Nc2nc3nc(-c4ccccc4)cc(=O)n3[nH]2)c1 [Entry 151, 3-methyl-N-(7-oxo-5-phenyl-1H-[1,2,4]triazolo[1,5-a]pyrimidin-2-yl)benzamide]

— US12171755B2, “PAPD5 inhibitors and methods of use thereof” (Children's Medical Center Corporation, priority 2017, dated 2024)
